# Test results reported in patent US8916540B2, “Antibiotic compositions and related screening methods” (Academia Sinica, priority 2008, dated 2014).
# Legend:
# [1] = biological target: PBP1b from Citrobacter freundii; assay: SPR moenomycin binding to immobilized full-length PBP; conditions: steady-state affinity, average values, read-out: SPR_KD
# Neisseria gonorrhoeae = conditions: literature citation 28; cited from earlier work
# Staphylococcus aureus = conditions: literature citation 10; cited from earlier work
# [2] = biological target: PBP2a from Enterococcus faecalis; assay: Fluorescence anisotropy direct binding assay; conditions: FA direct binding, 100 nM F-Moe, 10 mM Tris pH 8.0, 100 mM NaCl; read-out: FA_KD
# Procedure: Fluorescence anisotropy measurements were carried out in triplicates in the wells of 384-well plates using a laser fluorimetry equipped with a 488 nm laser (IsoCyte, Blueshift Biotech, Inc., Sunnyvale, Calif., USA). Various buffers, salts, pH values, and divalent cations (Ca^++, Mg^++, Co^++) were optimized for fluorescence anisotropy measurements. […] The scanning focus was above the plate bottom to avoid detection interferences. Data analysis was performed with the proprietary software, BlueImage (Blueshift Biotech Inc). Fluorescence anisotropy values (A) were calculated using the equation: A=(/∥−G*/⊥)/(/∥+2G*/⊥), where /∥ is the fluorescence intensity of emitted light parallel to excitation, /⊥ is the fluorescence intensity of emitted light perpendicular to excitation, and G is the […] that corrects for instrument bias. The G factor is experimentally determined for each run using the probe-only well as the basal an isotropy.
# For direct binding assay, the initial condition contained 40 μl of 100 nM F-Moe in 10 mM Tris, pH 8.0, 100 mM NaCl. After a small volume of PBP stock was added, the anisotropy change was measured after a 5-minute equilibration. We assume that the direct titration follows a simple binding equilibrium between Ligand (L) and Receptor (R)
# [formula] […]
# Bacillus subtilis = conditions: literature citation 30; cited from earlier work
# Escherichia coli = conditions: literature citation 28; cited from earlier work
substance,measurement,setting,value
Moenomycin A [Compound 1],Kd,[1],728 nM
same,Reported values MIC,Neisseria gonorrhoeae,1.69 µM
same,Reported values MIC,Staphylococcus aureus,0.02 to 0.12 µM
same,Kd,[2],276 ± 14 nM
same,Reported values MIC,Bacillus subtilis,0.07 to 0.43 µM
same,Reported values MIC,Escherichia coli,55 to 110 µM
